Entries after “also recorded” stand apart in the source; their conditions may differ.
Key:
[1] = tested on: 7S plaque-forming cells; assay: Antibody production to sheep erythrocytes, 7S plaque-forming cells, comparison with other agents; conditions: i.p.; for Spleen weight, mean ± S.E. / 7S PFC/10^6 spleen cells, mean ± S.E. / Mean body weight gain: 8 days; for Spleen weight, mean ± S.E.: control 125 ± 16; for 7S PFC/10^6 spleen cells, mean ± S.E.: control 1045 ± 202; for Mean body weight gain: control +1.0
Protocol: The effect of KH-125 on antibody production in ddY mice was examined by Cunningham and Szenberg's plaque technique (Immunology, 14, 599, 1968) and compared with other agents.
Mice were immunized by intravenous injection of washed sheep erythrocytes (4 × 10^8 cells/mouse). Administration of KH-125 was made orally for 4 consecutive days from the day of antigen injection. 19S Plaque-forming cells (PFC) were counted 4 days after immunization.
In comparative experiment, test agents were administered intraperitoneally for 8 consecutive days from one day before immunization. 7S PFC's were counted 9 days after immunization.

[2] = tested on: Wistar rats; assay: Chronic toxicity study, 6 months oral; assay type: in vivo
Protocol: The chronic toxicity study of KH-125 was carried out in Wistar rats of both sexes. Rats were treated orally with KH-125 for 6 months at the dose levels of 0 (control), 10, 20 and 40 mg/kg/day.

[3] = Acute toxicity in rats (LD50); assay type: in vivo, Wistar rats; conditions: rat, in vivo
Protocol: (§1) The acute toxicity of KH-125 was studied in both sexes of ddY mice and Wistar rats. The LD50 values were calculated by the method of Litchfield and Wilcoxon (J. Pharmacol. Exptl. Ther., 96, 99, 1949).

[4] = tested on: Wistar rats; assay: Acute toxicity in rats (LD50); assay type: in vivo; conditions: rats, male vs female
Protocol: as §1

[5] = tested on: nephrotoxic nephritis; assay: Nephrotoxic nephritis in rats, comparative experiment; assay type: in vivo, Wistar rats; conditions: p.o. once daily, 15 days; protein-uria, fusion index, basement membrane thickening
Protocol: Protein-uria was measured 18 days after nephrotoxin injection, then for electron microscopic examination the nephrotic rats were killed 3 days later. See legend of FIG. 2 for other details.
The effect of KH-125 on nephrotoxic nephritis in Wistar rats was evaluated from the following three points: (1) urinary protein measurements, (2) electron microscopic findings and (3) light microscopic findings. Nephrotic rats were prepared according to Shibata's method. (Ths Saishin-Igaku, 20, 1089, 1965).
In a comparative experiment, test agents were administered once daily: KH-125, 15 days during days 0 - 10 and 15 - 18 (p.o.); 6-mercaptopurine (6-MP), 6 days during days 0 - 5 (p.o.); cyclophosphamide, 11 days during days 0 - 10 (i.p.); and prednisolone, 11 days during days 0 - 10 (i.p.), starting from the day of nephrotoxin-injection. Urinary protein was measured 18 days after the injection of nephrotoxin, and then the animals were sacrificed 3 days later for histopathological examinations.

[6] = Acute toxicity in mice (LD50); assay type: in vivo, ddY mice; conditions: mouse, in vivo
Protocol: as §1

[7] = tested on: ddY mice; assay: Acute toxicity in mice (LD50); assay type: in vivo; conditions: mice, male vs female
Protocol: as §1

[8] = tested on: adjuvant arthritis; assay: Adjuvant arthritis in rats, prophylactic experiment; conditions: for increase in arthritis score / swelling of adjuvant-injected and non-injected feet: once daily for 17 days
[9] = tested on: rats, rabbits and mice; assay: Subacute and chronic toxicity, teratological and carcinogenic studies (summary); assay type: in vivo; conditions: subacute, chronic
Protocol: (§2) Its toxicological properties were evaluated by subacute and chronic toxicity tests in rats, by teratological studies in rats and rabbits and also by carcinogenic tests in mice and rats.

[10] = tested on: mice and rats; assay: Carcinogenic tests; assay type: in vivo
Protocol: as §2

[11] = tested on: rats and rabbits; assay: Teratological studies; assay type: in vivo
Protocol: as §2

[12] = tested on: 19S plaque-forming cells; assay: Antibody production to sheep erythrocytes, 19S plaque-forming cells (oral administration); assay type: in vivo, ddY mice; conditions: 4 days; for Mean body weight gain: control +0.8
Excerpt: Mice were immunized by intravenous injection of washed sheep erythrocytes (4 × 10^8 cells/mouse). […] 19S Plaque-forming cells (PFC) were counted 4 days after immunization.

[13] = tested on: antibody formation to sheep erythrocytes; assay: Screening for ability to suppress antibody formation to sheep erythrocytes in mice; assay type: in vivo
Protocol: In an attempt to find an immunosuppressive agent having a lowered toxicity, about fifty acid hydrazides, mainly amino acid hydrazide derivatives, were synthesized and screened for their ability to suppress the antibody formation to sheep erythrocytes in mice. […] Further detailed pharmacological and toxicological studies were then performed about KH-125.

[14] = tested on: nephrotoxic nephritis; assay: Nephrotoxic nephritis in rats, prophylactic experiment; assay type: in vivo, Wistar rats
Protocol: Protein-uria was measured 18 days after nephrotoxin injection, then for electron microscopic examination the rats were killed 2 days later.
Urinary protein was measured 18 days after the nephrotoxin-injection, and then the nephrotic rats were sacrificed 2 days later for histopathological examinations.

[15] = established immunosuppressive drugs; cited from earlier work
[16] = 6 months, 10, 20 and 40 mg/kg/day
[17] = oral, electron microscopic findings

C[C@]12C=CC(=O)C=C1CC[C@@H]1[C@@H]2[C@@H](O)C[C@@]2(C)[C@H]1CC[C@]2(O)C(=O)CO [prednisolone]
Spleen weight, mean ± S.E. ([1]; 4 mg/kg/day): 116 ± 19 mg
7S PFC/10^6 spleen cells, mean ± S.E. ([1]; 4 mg/kg/day): 706 ± 178 7SPFC/10^6 spleen cells

NNC(=O)CCNS(=O)(=O)c1ccccc1 [KH-125, N-benzenesulfonyl-β-alanine hydrazide]
body weight gain ([2]; 6 months, 40 mg/kg/day): slightly inhibited
erythrocyte count and hemoglobin [2, 16]: dose-dependent decrease
general symptoms, food intake, urinalysis, and fractionation of serum protein [2, 16]: No significant effects
histopathological examinations [2, 16]: No toxic effects which could be attributed to the drug were detected
serum enzyme activities, S-GOT and S-GPT [2, 16]: slight but dose-dependent increases
survival [2, 16]: All rats survived
LD50 ([3]; ip, female rats): 2580 mg/kg
LD50 ([3]; ip, male rats): 2150 mg/kg
LD50 ([3]; po, female rats): > 4000 mg/kg
LD50 ([3]; po, male rats): > 4000 mg/kg
LD50 ([3]; sc, female rats): > 4000 mg/kg
LD50 ([3]; sc, male rats): > 4000 mg/kg
sex difference concerning the acute toxicity [4]: No sex difference
suppression of nephrotoxic nephritis, compared with 6-mercaptopurine, cyclophosphamide and prednisolone [5]: most effectively suppressed
LD50 ([6]; ip, female mice): 1410 mg/kg
LD50 ([6]; ip, male mice): 1230 mg/kg
LD50 ([6]; po, female mice): 1570 mg/kg
LD50 ([6]; po, male mice): 1520 mg/kg
LD50 ([6]; sc, female mice): 1440 mg/kg
LD50 ([6]; sc, male mice): 1150 mg/kg
sex difference concerning the acute toxicity [7]: No sex difference
rebound of foot swelling after withdrawal ([8]; after withdrawal): not prominent
survival during the experiment ([8]; oral, as high as 80 mg/kg/day, 17 days): survived throughout the test period
increase in arthritis score ([8]; oral): dose-dependently suppressed
swelling of adjuvant-injected and non-injected feet ([8]; oral): dose-dependently suppressed
suppression of adjuvant arthritis (summary) ([8]; rats): suppress adjuvant arthritis
safety margin (maximal tolerated dose in repeated administration versus effective dose) relative to 6-mercaptopurine ([8]; versus 6-mercaptopurine, adjuvant arthritis): about 3 times
toxicity compared with well-known immunosuppressive agents [9]: considerably lower toxicity than well-known immunosuppressive agents
carcinogenic effect [10]: neither teratogenic nor carcinogenic effect
Spleen weight, mean ± S.E. ([1]; 200 mg/kg/day, p < 0.01): 60 ± 8 mg
7S PFC/10^6 spleen cells, mean ± S.E. ([1]; 200 mg/kg/day, p < 0.01): 233 ± 63 7SPFC/10^6 spleen cells
Mean body weight gain ([1]; 200 mg/kg/day): -4.5 g
suppressive effect on the appearance of 7S PFC, compared with other agents ([1]; 8 consecutive days): higher than that of prednisolone or 6-mercaptopurine; also recorded: less effective than cyclophosphamide
teratogenic effect [11]: neither teratogenic nor carcinogenic effect
Spleen weight, mean ± S.E. ([12]; 40 mg/kg/day, control 181 ± 8): 135 ± 20 mg
19S PFC/10^6 spleen cells, mean ± S.E. ([12]; 40 mg/kg/day, control 1905 ± 267): 1383 ± 327 19S PFC/10^6 spleen cells
Mean body weight gain ([12]; 40 mg/kg/day): +1.0 g
Spleen weight, mean ± S.E. ([12]; 80 mg/kg/day, control 181 ± 8, p < 0.05): 139 ± 9 mg
19S PFC/10^6 spleen cells, mean ± S.E. ([12]; 80 mg/kg/day, control 1905 ± 267, p < 0.01): 368 ± 124 19S PFC/10^6 spleen cells
Mean body weight gain ([12]; 80 mg/kg/day): -0.8 g
Spleen weight, mean ± S.E. ([12]; 160 mg/kg/day, control 181 ± 8): 164 ± 14 mg
19S PFC/10^6 spleen cells, mean ± S.E. ([12]; 160 mg/kg/day, control 1905 ± 267, p < 0.01): 329 ± 46 19S PFC/10^6 spleen cells
Mean body weight gain ([12]; 160 mg/kg/day): -0.5 g
appearance of 19S PFC ([12]; 40-160 mg/kg/day): dose-dependently suppressed
immunosuppressive activity among about fifty acid hydrazides tested ([13]; mice, antibody formation to sheep erythrocytes): most potent immunosuppressive activity
acute toxicity among the compounds tested ([13]; screening): fairly lower acute toxicity
light microscopic findings ([14]; oral): good improvement of nephritis
fusion index of epithelial foot processes [14, 17]: improved
thickening of glomerular basement membrane [14, 17]: suppressed
protein-uria ([14]; oral, twice a day, 18 days after nephrotoxin injection): decreased dose-dependently
suppression of experimental nephrotoxic nephritis (summary) ([14]; rats): suppress adjuvant arthritis as well as experimental nephrotoxic nephritis

Sc1ncnc2nc[nH]c12 [6-mercaptopurine, reference compound]
rats died during the experiment ([8]; oral, 30 mg/kg/day, 17 days): Three of 7
increase in arthritis score ([8]; oral): dose-dependently suppressed
swelling of adjuvant-injected and non-injected feet ([8]; oral): dose-dependently suppressed
teratogenic and carcinogenic effect [15]: inevitably shared
Spleen weight, mean ± S.E. ([1]; 30 mg/kg/day): 103 ± 12 mg
7S PFC/10^6 spleen cells, mean ± S.E. ([1]; 30 mg/kg/day, p < 0.05): 385 ± 83 7SPFC/10^6 spleen cells

O=P1(N(CCCl)CCCl)NCCCO1 (stereo not drawn) [cyclophosphamide]
teratogenic and carcinogenic effect [15]: inevitably shared
Spleen weight, mean ± S.E. ([1]; 20 mg/kg/day, p < 0.05): 87 ± 7 mg
7S PFC/10^6 spleen cells, mean ± S.E. ([1]; 20 mg/kg/day, p < 0.01): 61 ± 8 7SPFC/10^6 spleen cells
Mean body weight gain ([1]; 20 mg/kg/day): +0.2 g

Source: US3934036A, “N-benzenesulfonyl-β-alanine hydrazide useful as an immunosuppressive agent” (priority 1975, dated 1976)
